Test results as given in ChEMBL document CHEMBL1201862, “PubChem BioAssay data set” (2004).
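Tested at 5 concentrations; 48 h exposure; 96-well plates; endpoints linearly interpolated, else capped at highest concentration. GI50 = concentration required for 50% inhibition of growth.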 Calls of active or inactive are those of the source. Cut-off read from the data, not from the text of the source: active = GI50 up to about 1.1 µM and inactive = higher.

Experiments:
Test in all cases: NCI tumour cell line growth inhibition, 48 h
NCI-H23 = test system: NCI-H23
UACC-257 = test system: UACC-257
OVCAR-3 = test system: OVCAR-3
LOX IMVI = test system: LOX IMVI
ACHN = test system: ACHN
UACC-62 = test system: UACC-62
SNB-78 = test system: SNB-78
HCC 2998 = test system: HCC 2998
HL-60 = test system: HL-60
786-0 = test system: 786-0
CAKI-1 = test system: CAKI-1
NCI-H522 = test system: NCI-H522
MOLT-4 = test system: MOLT-4
OVCAR-4 = test system: OVCAR-4
K562 = test system: K562
KM12 = test system: KM12
SK-MEL-2 = test system: SK-MEL-2
MDA-MB-435 = test system: MDA-MB-435
T47D = test system: T47D
MDA-MB-231 = test system: MDA-MB-231

Compound | GI50 (NCI-H23) | GI50 (UACC-257) | GI50 (OVCAR-3) | GI50 (LOX IMVI) | GI50 (ACHN) | GI50 (UACC-62) | GI50 (SNB-78) | GI50 (HCC 2998) | GI50 (HL-60) | GI50 (786-0) | GI50 (CAKI-1) | GI50 (NCI-H522) | GI50 (MOLT-4) | GI50 (OVCAR-4) | GI50 (K562) | GI50 (KM12) | GI50 (SK-MEL-2) | GI50 (MDA-MB-435) | GI50 (T47D) | GI50 (MDA-MB-231)
N#Cc1ccccc1/C=N/O | > 100 µM (inactive) | > 100 µM (inactive) | > 100 µM (inactive) | > 100 µM (inactive) | > 60.3 µM (inactive) | > 100 µM (inactive) | > 100 µM (inactive) | > 100 µM (inactive) | > 44.4 µM (inactive) | > 76.7 µM (inactive) | > 100 µM (inactive) | > 100 µM (inactive) | > 100 µM (inactive) | > 100 µM (inactive) | > 44.7 µM (inactive) | > 100 µM (inactive) |  |  |  | 
NCCCNCc1c2ccccc2c(CNCCCN)c2ccccc12 | 18.6 µM (inactive) | 21.2 µM (inactive) | 28.3 µM (inactive) |  | 26.7 µM (inactive) | 36.1 µM (inactive) | 22.5 µM (inactive) | 17 µM (inactive) | 14.4 µM (inactive) | 5.9 µM (inactive) | 30.5 µM (inactive) | 5.96 µM (inactive) | 12 µM (inactive) | 11.1 µM (inactive) | 13.6 µM (inactive) | 19.2 µM (inactive) | 14.9 µM (inactive) |  |  | 
Cc1nc(N2N=C(c3ccc(Cl)cc3)CCC2=O)sc1[N+](=O)[O-] | > 100 µM (inactive) | > 100 µM (inactive) | > 100 µM (inactive) | > 100 µM (inactive) | > 100 µM (inactive) | > 100 µM (inactive) | > 100 µM (inactive) | > 100 µM (inactive) | > 100 µM (inactive) | > 100 µM (inactive) | > 100 µM (inactive) | > 100 µM (inactive) | > 100 µM (inactive) | > 100 µM (inactive) | > 100 µM (inactive) | > 100 µM (inactive) | > 100 µM (inactive) |  |  | 
O=C(NNC(=O)/C(=C/c1cccc([N+](=O)[O-])c1)NC(=O)c1ccccc1)Nc1ccc(Cl)cc1 | 15.1 µM (inactive) | 17.6 µM (inactive) | 11.6 µM (inactive) | 15.6 µM (inactive) | 14 µM (inactive) | 14.5 µM (inactive) | 24 µM (inactive) | 13.1 µM (inactive) | 6.5 µM (inactive) | 14 µM (inactive) | 19.9 µM (inactive) | 12.3 µM (inactive) | 3.94 µM (inactive) | 11.2 µM (inactive) | 5.66 µM (inactive) | 11.4 µM (inactive) | 12.2 µM (inactive) |  |  | 
Cn1c(=O)c(/N=N/c2c(=O)n(C)c(=O)n3c2[nH]c2ccccc23)c2[nH]c3ccccc3n2c1=O | 71.1 µM (inactive) | 54.2 µM (inactive) | > 100 µM (inactive) | 6.24 µM (inactive) | 80.9 µM (inactive) | > 100 µM (inactive) | > 100 µM (inactive) | > 100 µM (inactive) | > 100 µM (inactive) | 41.9 µM (inactive) | > 100 µM (inactive) | 66.5 µM (inactive) |  | > 100 µM (inactive) | > 100 µM (inactive) | > 100 µM (inactive) | > 100 µM (inactive) |  |  | 
CC(O)C(C(=O)O)N(CC1(O)OCC(O)C(O)C1O)N=O (stereo unspecified) | > 100 µM (inactive) | > 100 µM (inactive) | > 100 µM (inactive) | > 100 µM (inactive) | > 100 µM (inactive) | > 100 µM (inactive) | > 100 µM (inactive) | > 100 µM (inactive) | > 100 µM (inactive) | > 100 µM (inactive) |  | > 100 µM (inactive) | > 100 µM (inactive) |  | > 100 µM (inactive) | > 100 µM (inactive) | > 100 µM (inactive) |  |  | 
OCC(O)C(O)C(O)C(O)c1nnn[nH]1 (stereo unspecified) | > 100 µM (inactive) |  | > 100 µM (inactive) | > 100 µM (inactive) | > 100 µM (inactive) | > 100 µM (inactive) | > 100 µM (inactive) |  | > 100 µM (inactive) | > 100 µM (inactive) | > 100 µM (inactive) | > 100 µM (inactive) | > 100 µM (inactive) | > 100 µM (inactive) | > 100 µM (inactive) | > 100 µM (inactive) | > 100 µM (inactive) |  |  | 
CCN1C[C@]2(C)CC[C@H](O)C34C1C(C[C@@H]32)[C@@]1(O)CC[C@H]2C[C@@H]4[C@@H]1[C@H]2O | > 100 µM (inactive) | > 100 µM (inactive) | > 100 µM (inactive) | > 100 µM (inactive) | > 100 µM (inactive) | > 100 µM (inactive) | 88.7 µM (inactive) |  | > 100 µM (inactive) | > 100 µM (inactive) | > 100 µM (inactive) | > 100 µM (inactive) | > 100 µM (inactive) | > 100 µM (inactive) |  | > 100 µM (inactive) | > 100 µM (inactive) |  |  | 
COc1cc2c(cc1OC)C(Cc1cc(Br)c(OC)c(OC)c1)=[N+](C)CC2 | 14.6 µM (inactive) | 11.1 µM (inactive) | 28.2 µM (inactive) | 39.3 µM (inactive) | 90.4 µM (inactive) | > 100 µM (inactive) | 92.5 µM (inactive) | > 100 µM (inactive) | 36 µM (inactive) | > 100 µM (inactive) | > 100 µM (inactive) | 22.8 µM (inactive) |  | 19.2 µM (inactive) | 18.8 µM (inactive) | > 100 µM (inactive) | > 100 µM (inactive) |  |  | 
O=c1[nH]c(-c2ccccc2)nc2ccc(Cl)cc12 | 77.4 µM (inactive) | 42.4 µM (inactive) | 31 µM (inactive) |  | 73.1 µM (inactive) |  | 93.8 µM (inactive) | > 100 µM (inactive) |  | 60.8 µM (inactive) | 20.9 µM (inactive) | 20.5 µM (inactive) | 34 µM (inactive) | 30.3 µM (inactive) | 26.9 µM (inactive) | 68.5 µM (inactive) | 47 µM (inactive) |  |  | 
O=C(OCc1ccccc1C1CSCSC1)c1cc(C(=O)OCc2ccccc2C2CSCSC2)c(C(=O)OCc2ccccc2C2CSCSC2)cc1C(=O)OCc1ccccc1C1CSCSC1 | > 100 µM (inactive) | > 100 µM (inactive) | > 100 µM (inactive) | > 100 µM (inactive) | > 100 µM (inactive) | > 100 µM (inactive) | 78.9 µM (inactive) |  | > 100 µM (inactive) | 65 µM (inactive) | > 100 µM (inactive) | > 100 µM (inactive) | > 100 µM (inactive) | > 100 µM (inactive) | > 100 µM (inactive) | > 100 µM (inactive) | > 100 µM (inactive) |  |  | 
COc1cc(Br)c(/C=N\c2cccc3ccc(OS(=O)(=O)c4ccc([N+](=O)[O-])cc4)cc23)cc1OC | 44.1 µM (inactive) | > 100 µM (inactive) | > 100 µM (inactive) | 6.59 µM (inactive) | 12.4 µM (inactive) | 29.4 µM (inactive) | 34.2 µM (inactive) | 36.4 µM (inactive) |  | 75.7 µM (inactive) | 6.19 µM (inactive) | 48 µM (inactive) | > 100 µM (inactive) | > 100 µM (inactive) |  | 59.4 µM (inactive) | > 100 µM (inactive) |  |  | 
Cc1csc2nc(-c3cc([N+](=O)[O-])c(Cl)cc3Cl)c(/C=N/N=C(N)N)n12 | 16.4 µM (inactive) | 17.8 µM (inactive) | 17 µM (inactive) | 16.7 µM (inactive) | 16.6 µM (inactive) | 14.2 µM (inactive) |  | 7.19 µM (inactive) | 13.5 µM (inactive) | 19.5 µM (inactive) | 15.6 µM (inactive) | 15.9 µM (inactive) | 0.0986 µM (active) | 16 µM (inactive) | 6.53 µM (inactive) | 14.4 µM (inactive) | 13.4 µM (inactive) | 17.1 µM (inactive) | 16.9 µM (inactive) | 14.8 µM (inactive)
Brc1ccccc1C1SCc2nc3ccccc3n21 (stereo unspecified) | 11.7 µM (inactive) |  | 13.5 µM (inactive) | 13.2 µM (inactive) | 16.4 µM (inactive) | > 10 µM (inactive) | 26.4 µM (inactive) |  | 6.71 µM (inactive) | 14 µM (inactive) | 20.7 µM (inactive) | 13.2 µM (inactive) | 18.5 µM (inactive) | 23.8 µM (inactive) | 7.01 µM (inactive) | 15.9 µM (inactive) | 15.5 µM (inactive) |  |  | 
FC(F)(F)c1n[nH]c(SCc2ccc(Cl)cc2)n1 | > 100 µM (inactive) | > 100 µM (inactive) | > 100 µM (inactive) | > 100 µM (inactive) | > 100 µM (inactive) | > 100 µM (inactive) |  | > 100 µM (inactive) | > 100 µM (inactive) | > 100 µM (inactive) | > 100 µM (inactive) | > 100 µM (inactive) | > 100 µM (inactive) | > 100 µM (inactive) | > 100 µM (inactive) | > 100 µM (inactive) | > 100 µM (inactive) | > 100 µM (inactive) | > 100 µM (inactive) | > 100 µM (inactive)
O=C(Nc1cccc(C(F)(F)F)c1)C(=O)C1NC(=S)NC1=O (stereo unspecified) | > 100 µM (inactive) | 31.6 µM (inactive) | > 100 µM (inactive) | 72.9 µM (inactive) | > 100 µM (inactive) | > 100 µM (inactive) | > 100 µM (inactive) | > 100 µM (inactive) | > 100 µM (inactive) | > 100 µM (inactive) | > 100 µM (inactive) |  | > 100 µM (inactive) | > 100 µM (inactive) | 71.1 µM (inactive) | > 100 µM (inactive) | > 100 µM (inactive) |  |  | 
Clc1ccc(CSCc2ccc(Cl)cc2Cl)c(Cl)c1 | 78.5 µM (inactive) | 25.6 µM (inactive) | 88.3 µM (inactive) | 36.1 µM (inactive) | > 100 µM (inactive) | 50 µM (inactive) |  | 26.3 µM (inactive) | 39.7 µM (inactive) | 60.8 µM (inactive) | 86.1 µM (inactive) | 24.8 µM (inactive) | 19.4 µM (inactive) | 36.4 µM (inactive) | 57.5 µM (inactive) | 40.2 µM (inactive) | 21.3 µM (inactive) | 41 µM (inactive) | 22.5 µM (inactive) | > 100 µM (inactive)
